Like-named read-outs stand apart in the source and are kept apart here.
Biological target: T1, Human Cav3.1 calcium channel (Homo sapiens, UniProt O43497)
T1 construct: expressed in transfected cells; host or cells: HEK-293 natClytin/TASK1+Cav3.1 cell line
Test: Human Cav3.1 calcium channel patch clamp assay (SyncroPatch 384PE; single point and IC50, voltage dependent block)
Type: cell-based
Conditions: for % Inhibition (Single Point Data): patch clamp
Summary of the method: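 Automated whole-cell patch clamp at room temperature, cells held at −120 mV; 100 ms step to −20 mV (resting block), then 1600 ms at −65 mV and a second −20 mV step (voltage-dependent block), every 15 s. Peak currents averaged over last 3 sweeps; % inhibition relative to nickel-sensitive current.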

[1] = Testing Conc 1.25, HEK-293 natClytin/TASK1+Cav3.1 cell line
[2] = voltage dependent block (VDB), HEK-293 natClytin/TASK1+Cav3.1 cell line, read-out: Cav3.1 IC50

T1 sequence (O43497 whole entry): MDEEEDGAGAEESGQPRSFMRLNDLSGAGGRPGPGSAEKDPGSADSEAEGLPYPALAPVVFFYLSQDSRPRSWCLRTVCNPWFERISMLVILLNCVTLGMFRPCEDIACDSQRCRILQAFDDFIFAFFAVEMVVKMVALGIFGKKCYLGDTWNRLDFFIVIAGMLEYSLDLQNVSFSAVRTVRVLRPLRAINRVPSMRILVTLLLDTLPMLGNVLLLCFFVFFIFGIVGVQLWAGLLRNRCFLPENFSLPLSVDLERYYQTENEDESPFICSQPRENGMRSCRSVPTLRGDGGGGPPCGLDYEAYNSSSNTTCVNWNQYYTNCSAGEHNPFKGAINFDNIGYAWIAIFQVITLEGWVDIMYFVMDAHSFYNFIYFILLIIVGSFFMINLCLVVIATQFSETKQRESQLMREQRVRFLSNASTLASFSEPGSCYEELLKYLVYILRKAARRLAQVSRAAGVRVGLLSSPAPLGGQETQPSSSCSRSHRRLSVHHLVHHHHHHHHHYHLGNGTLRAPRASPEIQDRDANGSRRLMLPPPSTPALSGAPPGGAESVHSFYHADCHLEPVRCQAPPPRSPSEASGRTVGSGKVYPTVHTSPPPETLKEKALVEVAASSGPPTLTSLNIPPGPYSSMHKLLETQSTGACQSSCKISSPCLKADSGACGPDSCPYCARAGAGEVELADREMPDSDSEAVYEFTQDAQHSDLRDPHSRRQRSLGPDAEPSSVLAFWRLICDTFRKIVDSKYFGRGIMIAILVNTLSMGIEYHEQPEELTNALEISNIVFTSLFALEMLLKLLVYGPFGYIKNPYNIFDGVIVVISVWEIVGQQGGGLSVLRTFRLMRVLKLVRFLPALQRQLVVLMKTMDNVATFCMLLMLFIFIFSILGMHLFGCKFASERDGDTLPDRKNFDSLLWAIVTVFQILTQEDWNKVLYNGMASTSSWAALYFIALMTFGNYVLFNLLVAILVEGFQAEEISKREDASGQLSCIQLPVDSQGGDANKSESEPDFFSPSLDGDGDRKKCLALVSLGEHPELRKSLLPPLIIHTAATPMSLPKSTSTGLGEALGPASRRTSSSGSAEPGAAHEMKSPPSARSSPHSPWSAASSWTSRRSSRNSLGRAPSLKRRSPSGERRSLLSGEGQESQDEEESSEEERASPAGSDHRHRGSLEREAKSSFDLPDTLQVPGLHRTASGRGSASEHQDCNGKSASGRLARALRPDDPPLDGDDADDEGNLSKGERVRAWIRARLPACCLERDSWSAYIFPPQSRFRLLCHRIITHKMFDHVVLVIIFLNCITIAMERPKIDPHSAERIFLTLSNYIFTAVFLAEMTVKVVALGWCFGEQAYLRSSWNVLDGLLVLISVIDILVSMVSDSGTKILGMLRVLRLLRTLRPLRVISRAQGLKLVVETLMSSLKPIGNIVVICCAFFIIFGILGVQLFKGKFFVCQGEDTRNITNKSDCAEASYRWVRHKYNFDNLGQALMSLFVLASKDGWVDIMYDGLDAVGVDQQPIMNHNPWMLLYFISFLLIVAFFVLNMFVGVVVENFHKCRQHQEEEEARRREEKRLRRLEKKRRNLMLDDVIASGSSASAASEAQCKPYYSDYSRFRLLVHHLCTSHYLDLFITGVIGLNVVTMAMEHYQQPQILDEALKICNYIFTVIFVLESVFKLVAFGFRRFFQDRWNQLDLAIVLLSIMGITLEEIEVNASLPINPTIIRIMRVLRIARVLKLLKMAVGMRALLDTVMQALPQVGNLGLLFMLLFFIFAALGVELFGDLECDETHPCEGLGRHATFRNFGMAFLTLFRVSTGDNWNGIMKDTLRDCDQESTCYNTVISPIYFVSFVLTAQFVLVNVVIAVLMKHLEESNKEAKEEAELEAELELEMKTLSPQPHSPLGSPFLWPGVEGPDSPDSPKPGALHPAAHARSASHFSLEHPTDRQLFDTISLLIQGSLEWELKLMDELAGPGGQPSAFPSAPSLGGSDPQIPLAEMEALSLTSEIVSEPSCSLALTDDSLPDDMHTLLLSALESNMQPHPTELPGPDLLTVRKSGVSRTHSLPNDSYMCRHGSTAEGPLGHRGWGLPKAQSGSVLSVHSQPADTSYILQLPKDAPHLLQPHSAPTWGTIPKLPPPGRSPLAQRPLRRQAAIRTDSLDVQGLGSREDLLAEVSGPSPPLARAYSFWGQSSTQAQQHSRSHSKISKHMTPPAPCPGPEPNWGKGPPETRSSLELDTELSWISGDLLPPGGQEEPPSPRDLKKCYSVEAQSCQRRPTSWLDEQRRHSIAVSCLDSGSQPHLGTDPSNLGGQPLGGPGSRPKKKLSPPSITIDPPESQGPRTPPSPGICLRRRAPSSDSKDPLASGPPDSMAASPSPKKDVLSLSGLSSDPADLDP

Cc1cccc2[nH]c(CN3CC4CC(C3)N4CCC3CCC(F)(F)CC3)nc12 [Compound 157]
% Inhibition (Single Point Data) [1]: 79.835% | IC50 [2]: 297 nM

CC1(CCN2C3CC2CN(Cc2nc4c(Cl)cc(F)cc4[nH]2)C3)CCC1 [Compound 109]
% Inhibition (Single Point Data) [1]: 98.531%

Fc1ccc(Cl)c2nc(CN3CC4CC(C3)N4CC(F)(F)C3CCCCC3)[nH]c12 [Compound 176]
% Inhibition (Single Point Data) [1]: 83.015% | IC50 [2]: 128 nM

O=C(CN1C[C@@H]2C[C@H]1CN2CC(=O)NC1(C(F)(F)F)COC1)NC12CC3CC(CC(C3)C1)C2 [Compound 319]
% Inhibition (Single Point Data) [1]: 23.628% | IC50 [2]: 2080 nM

CC1(C(=O)NCCN2C3CC2CN(Cc2nc4c(Cl)cc(F)cc4[nH]2)C3)CC1 [Compound 121]
% Inhibition (Single Point Data) [1]: 96.032% | IC50 [2]: 254 nM

Fc1ccc(Cl)c2nc(CN3CCN(CC(F)(F)C4CCCCC4)CC3)[nH]c12 [Compound 154]
% Inhibition (Single Point Data) [1]: 75.83% | IC50 [2]: 525 nM

CC(C)(C)NC(=O)CN1CCN(CC(=O)Nc2noc3ccccc23)CC1 [Compound 41]
% Inhibition (Single Point Data) (Testing Conc 1, HEK-293 natClytin/TASK1+Cav3.1 cell line): 38.937% | IC50 [2]: 316 nM

CC(C)(C)NC(=O)CN1C2CC1CN(CC(=O)Nc1cc(F)c(F)c(Cl)c1)C2 [Compound 350]
IC50 [2]: < 78.2 nM

COc1ccc(Cl)c2nc(CN3CC4CC(C3)N4CC(=O)NC(C)(C)C(F)(F)F)[nH]c12 [Compound 136]
% Inhibition (Single Point Data) [1]: 100.03%

COc1cc(Cl)cc(NC(=O)CN2CC3CC(C2)N3CC(=O)NC2(C(F)(F)F)CC2)c1 [Compound 334]
% Inhibition (Single Point Data) [1]: 79.86%

CC(C)(C)NC(=O)CN1CC2COCC(C1)C2CC(=O)Nc1cc(F)cc(Cl)c1 (centres unmarked) [Compound 368]
IC50 [2]: 126 nM

CC(C)(C)C(O)CN1C2CC1CN(CC(=O)NC13CC4CC(CC(C4)C1)C3)C2 (centres unmarked) [Compound 293]
% Inhibition (Single Point Data) [1]: 38.151% | IC50 [2]: 1680 nM

CC(C)(C)NC(=O)CN1C[C@@H]2C[C@H]1CN2CC(=O)NC12CC3CC(CC(C3)C1)C2 [Compound 259]
% Inhibition (Single Point Data) [1]: 91.279%

CC(C)(C)NC(=O)CN1C[C@@H]2C[C@H]1CN2CC(=O)Nc1ccc(F)c(OC(F)F)c1 [Compound 247]
% Inhibition (Single Point Data) [1]: 97.344%

CC(C)(C)NC(=O)CN1C[C@H]2C[C@@H]1CN2CC(=O)Nc1ccc(F)c(OC(F)F)c1 [Compound 246]
% Inhibition (Single Point Data) [1]: 49.246% | IC50 [2]: 1070 nM

COc1cc(NC(=O)CN2CC3CC(C2)N3CC(=O)NC2(C(F)(F)F)CC2)ccc1Cl [Compound 332]
% Inhibition (Single Point Data) [1]: 101.57%

COc1cccc2[nH]c(CN3CC4CCC(C3)N4CC(=O)NC(C)(C)C)nc12 [Compound 192]
% Inhibition (Single Point Data) [1]: 76.034% | IC50 [2]: 334 nM

CN(CCN1C2CC1CN(Cc1nc3c(Cl)cc(F)cc3[nH]1)C2)C(=O)C1(C)CC1 [Compound 145]
% Inhibition (Single Point Data) [1]: 83.5%

Cc1ccc(NC(=O)CN2C[C@@H]3C[C@H]2CN3CC(=O)NC2(C(F)(F)F)CC2)cc1Cl [Compound 355]
IC50 [2]: 1070 nM

CC(C)(C)NC(=O)CN1C2CC1CN(CC(=O)Nc1ccc(F)c(C(F)(F)F)c1)C2 [Compound 249]
% Inhibition (Single Point Data) [1]: 99.326% | IC50 [2]: 1010 nM

COc1cc(NC(=O)CN2C[C@@H]3C[C@H]2CN3CC(=O)NC(C)(C)C)ccc1F [Compound 310]
% Inhibition (Single Point Data) [1]: 84.193% | IC50 [2]: 241 nM

CC(C)(C)NC(=O)CN1C[C@@H]2CC[C@H]1CN2CC(=O)Nc1cc(F)cc(Cl)c1 [Compound 270]
% Inhibition (Single Point Data) [1]: 95.978%

O=C(CN1C[C@@H]2C[C@H]1CN2CC(=O)NC1(C(F)(F)F)CC1)Nc1cc(F)c(F)c(Cl)c1 [Compound 347]
IC50 [2]: < 78.2 nM

O=C1CCCCN1CCN1C2CC1CN(Cc1nc3c(Cl)cc(F)cc3[nH]1)C2 [Compound 120]
% Inhibition (Single Point Data) [1]: 81.802%

COc1cccc(NC(=O)CN2CC3CC2CN3CCNC(=O)C2(C(F)(F)F)CCC2)c1 (centres unmarked) [Compound 236]
% Inhibition (Single Point Data) [1]: 65.449% | IC50 [2]: 536 nM

Fc1cc(Cl)c2nc(CN3CC4CC(C3)N4CC3(F)CCC(F)(F)CC3)[nH]c2c1 [Compound 152]
IC50: < 78.2 nM | % Inhibition (Single Point Data) [1]: 70.533%

O=C(CN1CC2CC(C1)N2CC(=O)NC1(C(F)(F)F)CC1)Nc1ccc(F)c(C(F)(F)F)c1 [Compound 251]
% Inhibition (Single Point Data) [1]: 80.59%

CC(C)(C)NC(=O)CN1CC2CC1CN2CC(=O)Nc1cccc(C(F)F)c1 (centres unmarked) [Compound 13]
% Inhibition (Single Point Data) [1]: 64.618% | IC50 [2]: 490 nM

O=C(CN1CC2CC(C1)N2CCNC(=O)C1(C(F)(F)F)CC1)Nc1ccc(F)c(Cl)c1 [Compound 16]
% Inhibition (Single Point Data) [1]: 94.311%

Fc1cc(Cl)c2nc(CN3CCN(CC(F)(F)C4CCCCC4)CC3)[nH]c2c1 [Compound 162]
% Inhibition (Single Point Data) [1]: 73.357% | IC50 [2]: 416 nM

CC(C)(NC(=O)CN1C2CC1CN(CC(=O)Nc1ccc(F)c(Cl)c1)C2)C(F)(F)F [Compound 241]
% Inhibition (Single Point Data) [1]: 101.68%

Fc1cc(Cl)c2nc(CN3CC4CC(C3)N4CC(F)(F)C3CCCCC3)[nH]c2c1 [Compound 167]
% Inhibition (Single Point Data) [1]: 79.996% | IC50 [2]: 381 nM

Cc1ccc(Cl)c2nc(CN3CC4CC(C3)N4CC(=O)NC(C)(C)C)[nH]c12 [Compound 217]
% Inhibition (Single Point Data) [1]: 100.76%

O=C(NCCN1C2CC1CN(Cc1nc3c(Cl)cc(F)cc3[nH]1)C2)C1(C(F)(F)F)CCC1 [Compound 138]
% Inhibition (Single Point Data) [1]: 98.457%

Fc1ccc(Cl)c2nc(CN3CCN(CC(F)C4CCCCC4)CC3)[nH]c12 (centres unmarked) [Compound 161]
% Inhibition (Single Point Data) [1]: 95.402% | IC50 [2]: < 78.2 nM

CC(C)(C)NC(=O)CN1C[C@H]2COC[C@@H](C1)[C@H]2CNC(=O)c1cc(F)cc(Cl)c1 [Compound 370]
IC50 [2]: 1740 nM

O=C(CN1C2CCC1CN(Cc1nc3c(Cl)cc(F)cc3[nH]1)C2)N1CCC(F)(F)CC1 [Compound 81]
% Inhibition (Single Point Data) [1]: 100.06%

O=C(CN1CC2CC1CN2CCNC(=O)C1(C(F)(F)F)CC1)Nc1cc(F)cc(Cl)c1 (centres unmarked) [Compound 227]
% Inhibition (Single Point Data) [1]: 78.995% | IC50 [2]: 157 nM

COc1cc(F)cc(NC(=O)CN2C[C@@H]3C[C@H]2CN3CC(=O)NC2(C(F)(F)F)CC2)c1 [Compound 320]
% Inhibition (Single Point Data) [1]: 87.599% | IC50 [2]: 185 nM

CC(C)(C)NC(=O)CN1C2CC1CN(Cc1nc3c(OC(F)F)ccc(F)c3[nH]1)C2 [Compound 173]
IC50: < 78.2 nM | % Inhibition (Single Point Data) [1]: 94.854%

CC(C)(C)NC(=O)CN1C[C@H]2CC[C@@H]1CN2CC(=O)Nc1ccc(F)c(OC(F)F)c1 [Compound 266]
% Inhibition (Single Point Data) [1]: 61.569% | IC50 [2]: 803 nM
